In patent US12606561B2, “Substituted pyrazolo[1,5-a][1,3,5]triazines as CDK inhibitors” (QURIENT CO., LTD., priority 2018, dated 2026):
Like-named read-outs stand apart in the source and are kept apart here.

What was measured:
CDK2/Cyclin A = target: T1, CDK2/Cyclin A (Homo sapiens, UniProt P24941); assay: Enzymatic assay for CDK2 (LANCE Ultra kinase assay, FRET based); assay type: biochemical; conditions: ATP at Km
T1 construct: purchased Invitrogen PV6290
Outline: (§1)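 Compounds tested as 8 doses in 4-fold steps against CDK2/Cyclin A ([…]) or CDK5/p25 ([…]), with ATP at its Km and 68 nM ULight-MBP substrate. After 60 min at 23° C., EDTA plus Eu-labelled anti-phospho-MBP added; TR-FRET (615/665 nm) read after another 60 min.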

CDK1/Cyclin B = target: T2, CDK1/Cyclin B (Homo sapiens, UniProt P06493); assay: Enzymatic assay for CDK1 (LANCE Ultra kinase assay, FRET based); assay type: biochemical
T2 construct: purchased Invitrogen PR4768C
T2 sequence (P06493 whole entry): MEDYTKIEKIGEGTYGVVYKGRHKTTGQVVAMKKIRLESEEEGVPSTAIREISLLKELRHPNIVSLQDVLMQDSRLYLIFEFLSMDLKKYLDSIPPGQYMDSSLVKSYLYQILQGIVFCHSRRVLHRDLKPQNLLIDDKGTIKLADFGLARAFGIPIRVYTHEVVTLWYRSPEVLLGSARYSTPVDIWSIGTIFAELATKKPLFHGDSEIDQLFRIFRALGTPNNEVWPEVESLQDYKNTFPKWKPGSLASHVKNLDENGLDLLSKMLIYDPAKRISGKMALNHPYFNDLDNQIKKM
T2 sequence (P14635 whole entry partner): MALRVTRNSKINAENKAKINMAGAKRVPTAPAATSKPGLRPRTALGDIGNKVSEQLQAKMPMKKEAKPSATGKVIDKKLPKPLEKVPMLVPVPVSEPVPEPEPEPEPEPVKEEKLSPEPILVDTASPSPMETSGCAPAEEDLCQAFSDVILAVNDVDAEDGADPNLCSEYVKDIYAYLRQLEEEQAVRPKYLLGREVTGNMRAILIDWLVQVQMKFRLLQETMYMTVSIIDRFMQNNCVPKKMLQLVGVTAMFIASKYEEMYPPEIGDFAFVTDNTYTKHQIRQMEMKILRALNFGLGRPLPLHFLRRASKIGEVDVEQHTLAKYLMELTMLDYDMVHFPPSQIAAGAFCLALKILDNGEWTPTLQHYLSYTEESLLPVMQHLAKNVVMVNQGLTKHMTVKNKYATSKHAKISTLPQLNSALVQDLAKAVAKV
Outline: (§2)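 Kinase activity of each purified CDK/cyclin complex was followed in a FRET format where a Europium anti-phospho-antibody recognises phosphorylated ULight-labeled peptide. ATP was held at its Km.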

CDK5/p25 = target: T3, CDK5/p25 (Homo sapiens, UniProt Q00535); assay: Enzymatic assay for CDK5 (LANCE Ultra kinase assay, FRET based); assay type: biochemical; conditions: ATP at Km
T3 construct: purchased Invitrogen PR8543B
T3 sequence (Q00535 whole entry): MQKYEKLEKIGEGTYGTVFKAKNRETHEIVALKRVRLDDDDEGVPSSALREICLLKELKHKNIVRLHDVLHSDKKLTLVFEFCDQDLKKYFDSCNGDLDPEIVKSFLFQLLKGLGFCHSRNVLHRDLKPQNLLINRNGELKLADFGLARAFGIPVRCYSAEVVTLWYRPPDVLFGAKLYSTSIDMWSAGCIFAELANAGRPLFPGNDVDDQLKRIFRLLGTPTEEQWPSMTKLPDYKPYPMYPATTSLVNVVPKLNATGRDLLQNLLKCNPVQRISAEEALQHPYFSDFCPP
T3 sequence (Q15078 99-307 partner limits assumed): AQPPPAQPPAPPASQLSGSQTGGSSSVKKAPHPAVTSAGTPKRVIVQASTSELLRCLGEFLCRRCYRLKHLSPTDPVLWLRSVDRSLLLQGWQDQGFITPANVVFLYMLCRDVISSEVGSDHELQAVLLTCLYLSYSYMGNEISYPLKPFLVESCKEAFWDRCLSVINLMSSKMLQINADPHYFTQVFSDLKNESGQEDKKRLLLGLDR
Outline: as §1

CDK7/Cyclin H/MNAT1 = target: T4, CDK7/Cyclin H/MNAT1 (Homo sapiens, UniProt P50613); assay: Enzymatic assay for CDK7 (LANCE Ultra kinase assay, FRET based); assay type: biochemical; conditions: for IC50: ATP at Km
T4 construct: purchased Invitrogen PR6749B
T4 sequence (P50613 whole entry): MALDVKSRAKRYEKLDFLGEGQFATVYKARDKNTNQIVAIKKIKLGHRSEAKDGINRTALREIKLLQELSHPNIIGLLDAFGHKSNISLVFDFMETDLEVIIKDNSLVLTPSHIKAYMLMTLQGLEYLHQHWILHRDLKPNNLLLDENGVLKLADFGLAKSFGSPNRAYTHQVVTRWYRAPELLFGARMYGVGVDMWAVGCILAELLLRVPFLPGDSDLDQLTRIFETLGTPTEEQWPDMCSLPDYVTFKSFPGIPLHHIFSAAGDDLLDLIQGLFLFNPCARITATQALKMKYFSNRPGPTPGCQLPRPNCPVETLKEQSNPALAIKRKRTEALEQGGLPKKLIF
T4 sequence (P51946 whole entry partner): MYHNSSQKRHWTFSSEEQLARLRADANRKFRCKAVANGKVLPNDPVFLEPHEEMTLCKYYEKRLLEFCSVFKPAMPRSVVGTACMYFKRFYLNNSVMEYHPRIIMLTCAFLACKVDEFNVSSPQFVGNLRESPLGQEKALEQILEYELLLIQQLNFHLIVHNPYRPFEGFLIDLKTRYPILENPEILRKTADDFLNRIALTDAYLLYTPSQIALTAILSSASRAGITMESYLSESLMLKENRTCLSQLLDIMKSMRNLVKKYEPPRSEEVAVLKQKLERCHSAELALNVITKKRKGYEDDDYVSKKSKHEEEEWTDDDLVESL
T4 sequence (P51948 whole entry partner): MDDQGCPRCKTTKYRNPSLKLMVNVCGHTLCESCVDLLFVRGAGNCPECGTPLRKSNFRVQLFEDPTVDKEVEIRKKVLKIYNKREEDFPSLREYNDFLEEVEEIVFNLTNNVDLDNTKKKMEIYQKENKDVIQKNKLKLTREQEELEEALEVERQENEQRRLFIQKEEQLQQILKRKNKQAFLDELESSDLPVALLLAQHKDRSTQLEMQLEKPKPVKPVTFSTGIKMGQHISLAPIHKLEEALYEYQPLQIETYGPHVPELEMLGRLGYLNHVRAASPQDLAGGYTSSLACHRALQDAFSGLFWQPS
Outline: as §2

H460 = assay: Cellular H460 viability assay (CellTiter-Glo, 72 hours); assay type: cell-based; conditions: Homo sapiens, NCI-H460; H460 cells
Method: All cell lines were routinely tested for mycoplasma.
To effect of the CDK7 inhibitor to inhibit the growth of target cancer cells, viability assay were conducted a 72 hour time period. Briefly, the candidate cell line was plated in 96 well plate at the following density of cells respectively. 1×10^4 cells/well for MV4-11, 5×10^3 for H460 and OVCAR-3, and 1×10^3 for A2780. […] DMSO solvent without compound served as a control and final DMSO concentration lest than 0.1%. After 72 hours of incubation at 37° C., 5% CO2 incubator, cells were analyzed for the viability using the CellTiter-Glo Luminescent Cell Viability Assay (Promega, Cat #G7570). All viability assays were performed in duplicate and Luminescence was read using an Envision (Perkin Elmer, USA). Data was analyzed using XLfit software.

A2780 = A2780 viability assay (CellTiter-Glo, 72 hours); assay type: cell-based; conditions: Homo sapiens; A2780 cells
Outline: (§3)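 Each line was plated at its own density (1×10^4, 5×10^3 and 1×10^3 cells/well for MV4-11, OVCAR-3 and A2780 respectively) in RPMI-1640 with 10% FBS. Treatment with compound, 0.0015 uM to 10 uM and DMSO under 0.1%, lasted 72 h. Surviving cells were quantified by CellTiter-Glo.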

OVCAR-3 = OVCAR-3 viability assay (CellTiter-Glo, 72 hours); assay type: cell-based; conditions: Homo sapiens; OVCAR-3 cells
Outline: as §3

MV4-11 = assay: Cellular MV4-11 viability assay (CellTiter-Glo, 72 hours); assay type: cell-based; conditions: Homo sapiens; MV4-11 cells
Outline: as §3

[1] = ATP at Km, read-out: CDK1 enzymatic activity IC50

| IC50 (CDK2/Cyclin A) [nM] | IC50 (CDK1/Cyclin B; [1]) [nM] | IC50 (CDK5/p25) [nM] | IC50 (CDK7/Cyclin H/MNAT1) [nM] | CDK1/CDK7: Selectivity of CDK7 inhibition over CDK1 inhibition (CDK7/Cyclin H/MNAT1) | CDK2/CDK7: Selectivity of CDK7 inhibition over CDK2 inhibition (CDK7/Cyclin H/MNAT1) | CDK5/CDK7: Selectivity of CDK7 inhibition over CDK5 inhibition (CDK7/Cyclin H/MNAT1) | IC50 (H460) [nM] | IC50 (A2780) [nM] | IC50 (OVCAR-3) [nM] | IC50 (MV4-11) [nM] | SMILES | IC50 (CDK1/Cyclin B) [nM] |
| --- | --- | --- | --- | --- | --- | --- | --- | --- | --- | --- | --- | --- |
| 100 to 1000 | > 1000 | 100 to 1000 | < 100 | A (A indicates [fold] > 500) | B (B indicates 50 < [fold] ≤ 500) | B (B indicates 50 < [fold] ≤ 500) | < 1000 | – | – | – | CC(C)c1cnn2c(NCc3cccc(OC4CCCN(C(=O)/C=C/CN(C)C)CC4)c3)nc(N3CCC(N)CC3)nc12 (racemic) [Compound 18] | – |
| > 1000 | > 1000 | 100 to 1000 | < 100 | A (A indicates [fold] > 500) | B (B indicates 50 < [fold] ≤ 500) | B (B indicates 50 < [fold] ≤ 500) | 1000 to 10000 | – | – | – | CC(C)c1cnn2c(NCc3cccc(NC4CCCN(C(=O)/C=C/CN(C)C)CC4)c3)nc(N3CCC(N)CC3)nc12 (racemic) [Compound 21] | – |
| 100 to 1000 | > 1000 | 100 to 1000 | < 100 | A (A indicates [fold] > 500) | B (B indicates 50 < [fold] ≤ 500) | C (C indicates [fold] ≤ 50) | 1000 to 10000 | – | – | – | CC(C)c1cnn2c(NCc3cccc(NC(=O)C4CCCN(C(=O)/C=C/CN(C)C)CC4)c3)nc(N3CCC(N)CC3)nc12 (racemic) [Compound 22] | – |
| 100 to 1000 | 100 to 1000 | 100 to 1000 | < 100 | B (B indicates 50 < [fold] ≤ 500) | B (B indicates 50 < [fold] ≤ 500) | C (C indicates [fold] ≤ 50) | < 1000 | – | – | – | CC(C)c1cnn2c(NCc3cccc(Oc4cccc(NC(=O)/C=C/CN(C)C)c4)c3)nc(N3CCC(N)CC3)nc12 [Compound 2] | – |
| 100 to 1000 | > 1000 | 100 to 1000 | < 100 | B (B indicates 50 < [fold] ≤ 500) | B (B indicates 50 < [fold] ≤ 500) | C (C indicates [fold] ≤ 50) | < 1000 | – | – | – | C=CC(=O)Nc1cccc(Oc2cccc(CNc3nc(N4CCC(N)CC4)nc4c(C(C)C)cnn34)c2)c1 [Compound 5] | – |
| > 1000 | > 1000 | 100 to 1000 | < 100 | A (A indicates [fold] > 500) | A (A indicates [fold] > 500) | C (C indicates [fold] ≤ 50) | < 1000 | – | – | – | CC(C)c1cnn2c(NCc3ccccc3OC3CCN(C(=O)/C=C/CN(C)C)CC3)nc(N3CCC(N)CC3)nc12 [Compound 6] | – |
| > 1000 | > 1000 | > 1000 | < 100 | A (A indicates [fold] > 500) | A (A indicates [fold] > 500) | B (B indicates 50 < [fold] ≤ 500) | < 1000 | – | – | – | C=CC(=O)Nc1cccc(Oc2ccccc2CNc2nc(N3CCC(N)CC3)nc3c(C(C)C)cnn23)c1 [Compound 7] | – |
| > 1000 | > 1000 | 100 to 1000 | < 100 | A (A indicates [fold] > 500) | B (B indicates 50 < [fold] ≤ 500) | B (B indicates 50 < [fold] ≤ 500) | < 1000 | – | – | – | CC(C)c1cnn2c(NCc3ccccc3NC(=O)c3cccc(NC(=O)/C=C/CN(C)C)c3)nc(N3CCC(N)CC3)nc12 [Compound 8] | – |
| – | – | – | – | – | – | – | 1000 to 10000 | – | – | – | CC(C)c1cnn2c(NCc3ccccc3-c3nccc4c(NC(=O)/C=C/CN(C)C)cccc34)nc(N3CCC(N)CC3)nc12 [Compound 9] | – |
| 100 to 1000 | > 1000 | 100 to 1000 | < 100 | B (B indicates 50 < [fold] ≤ 500) | B (B indicates 50 < [fold] ≤ 500) | C (C indicates [fold] ≤ 50) | < 1000 | – | – | – | CC(C)c1cnn2c(NCc3ccccc3Oc3ccc(NC(=O)/C=C/CN(C)C)cc3)nc(N3CCC(N)CC3)nc12 [Compound 10] | – |
| > 1000 | > 1000 | 100 to 1000 | < 100 | A (A indicates [fold] > 500) | B (B indicates 50 < [fold] ≤ 500) | C (C indicates [fold] ≤ 50) | < 1000 | – | – | – | CC(C)c1cnn2c(NCc3cccc4ccc(NC(=O)/C=C/CN(C)C)nc34)nc(N3CCC(N)CC3)nc12 [Compound 12] | – |
| – | – | – | – | – | – | – | < 1000 | – | – | – | CC(C)c1cnn2c(NCc3cccc(Oc4ccc(F)c(NC(=O)/C=C/CN(C)C)c4)c3)nc(N3CCC(N)CC3)nc12 [Compound 13] | – |
| > 1000 | > 1000 | 100 to 1000 | < 100 | A (A indicates [fold] > 500) | B (B indicates 50 < [fold] ≤ 500) | B (B indicates 50 < [fold] ≤ 500) | < 1000 | – | – | – | C=CC(=O)Nc1cccc(Oc2cccc(CNc3nc(N4CCC(N(C)C)CC4)nc4c(C(C)C)cnn34)c2)c1 [Compound 14] | – |
| 100 to 1000 | > 1000 | 100 to 1000 | < 100 | A (A indicates [fold] > 500) | B (B indicates 50 < [fold] ≤ 500) | B (B indicates 50 < [fold] ≤ 500) | < 1000 | – | – | – | CC(C)c1cnn2c(NCc3cccc(Oc4ccc(Cl)c(NC(=O)/C=C/CN(C)C)c4)c3)nc(N3CCC(N)CC3)nc12 [Compound 15] | – |
| > 1000 | > 1000 | > 1000 | < 100 | A (A indicates [fold] > 500) | A (A indicates [fold] > 500) | A (A indicates [fold] > 500) | – | 1000 to 10000 | 1000 to 10000 | < 1000 | C/C=C/C(=O)Nc1ccc2c(-c3ccccc3CNc3nc(NC[C@H]4CNC[C@@H]4O)nc4c(C(C)C)cnn34)nccc2c1 [Compound 77] | – |
| > 1000 | > 1000 | > 1000 | < 100 | A (A indicates [fold] > 500) | A (A indicates [fold] > 500) | B (B indicates 50 < [fold] ≤ 500) | – | < 1000 | 1000 to 10000 | < 1000 | C=C(F)C(=O)Nc1cccc2cc(-c3cccc(C)c3CNc3nc(NC[C@H]4CCNC[C@@H]4O)nc4c(C(C)C)cnn34)[nH]c12 [Compound 78] | – |
| > 1000 | > 1000 | > 1000 | < 100 | A (A indicates [fold] > 500) | A (A indicates [fold] > 500) | A (A indicates [fold] > 500) | – | < 1000 | < 1000 | < 1000 | C=C(F)C(=O)Nc1ccc2c(-c3ccccc3CNc3nc(N4CCNCC4)nc4c(C(C)C)cnn34)nccc2c1 [Compound 79] | – |

| SMILES | IC50 (CDK2/Cyclin A) [nM] | IC50 (CDK1/Cyclin B; [1]) [nM] | IC50 (CDK5/p25) [nM] | IC50 (CDK7/Cyclin H/MNAT1) [nM] | CDK1/CDK7: Selectivity of CDK7 inhibition over CDK1 inhibition (CDK7/Cyclin H/MNAT1) | CDK2/CDK7: Selectivity of CDK7 inhibition over CDK2 inhibition (CDK7/Cyclin H/MNAT1) | CDK5/CDK7: Selectivity of CDK7 inhibition over CDK5 inhibition (CDK7/Cyclin H/MNAT1) | IC50 (H460) [nM] | IC50 (A2780) [nM] | IC50 (OVCAR-3) [nM] | IC50 (MV4-11) [nM] | IC50 (CDK1/Cyclin B) [nM] |
| --- | --- | --- | --- | --- | --- | --- | --- | --- | --- | --- | --- | --- |
| CC(C)c1cnn2c(NCc3cccc(NC(=O)c4cccc(NC(=O)/C=C/CN(C)C)c4)c3)nc(N3CCC(N)CC3)nc12 [Compound 1] | 100 to 1000 | – | 100 to 1000 | < 100 | B (B indicates 50 < [fold] ≤ 500) | B (B indicates 50 < [fold] ≤ 500) | C (C indicates [fold] ≤ 50) | 1000 to 10000 | – | – | – | > 1000 |
